Results taken from ChEMBL document CHEMBL3797052 (Eur J Med Chem, 2016).

Tested on: A498
Test: Antiproliferative activity against human A498 cells assessed as growth inhibition after 48 hrs by sulforhodamine B assay
Type: functional
Details: A498, 48 h

SMILES	GI50 [µM]	LC50 (concentration killing 50% of cells) [µM]	TGI [µM]
CNC(=O)c1cc(Oc2ccc3nc(NC(=O)c4cc(C(F)(F)F)cc(C(F)(F)F)c4)sc3c2)ccn1	1.45	30.9	4.51

Tested on: K562
Test: Antiproliferative activity against human K562 cells assessed as cell growth at 10^-7 M after 48 hrs by sulforhodamine B assay
Type: functional
Details: K562, 48 h, read-out: Activity

SMILES	growth at 0.1 µM [%]
CNC(=O)c1cc(Oc2ccc3nc(NC(=O)c4cc(C(F)(F)F)cc(C(F)(F)F)c4)sc3c2)ccn1	98

Tested on: EKVX
Test: Antiproliferative activity against human EKVX cells assessed as cell growth at 10^-7 M after 48 hrs by sulforhodamine B assay
Type: functional
Details: read-out: Activity

SMILES	growth at 0.1 µM [%]
CNC(=O)c1cc(Oc2ccc3nc(NC(=O)c4cc(C(F)(F)F)cc(C(F)(F)F)c4)sc3c2)ccn1	91

Tested on: U-251
Test: Antiproliferative activity against human U251 cells assessed as cell growth at 10^-7 M after 48 hrs by sulforhodamine B assay
Type: functional
Details: U-251, 48 h, read-out: Activity

SMILES	growth at 0.1 µM [%]
CNC(=O)c1cc(Oc2ccc3nc(NC(=O)c4cc(C(F)(F)F)cc(C(F)(F)F)c4)sc3c2)ccn1	97

Tested on: CCRF-CEM
Test: Antiproliferative activity against human CCRF-CEM cells assessed as cell growth at 10^-5 M after 48 hrs by sulforhodamine B assay
Type: functional
Details: read-out: Activity

SMILES	growth at 10 µM [%]
CNC(=O)c1cc(Oc2ccc3nc(NC(=O)c4cc(C(F)(F)F)cc(C(F)(F)F)c4)sc3c2)ccn1	13

Tested on: not listed separately
Test: Antiproliferative activity against human MOLT4 cells assessed as cell growth at 10^-5 M after 48 hrs by sulforhodamine B assay
Type: functional
Details: MOLT-4, 48 h, read-out: Activity

SMILES	growth at 10 µM [%]
CNC(=O)c1cc(Oc2ccc3nc(NC(=O)c4cc(C(F)(F)F)cc(C(F)(F)F)c4)sc3c2)ccn1	1

Tested on: SR
Test: Antiproliferative activity against human SR cells assessed as cell growth at 10^-5 M after 48 hrs by sulforhodamine B assay
Type: functional
Details: read-out: Activity

SMILES	growth at 10 µM [%]
CNC(=O)c1cc(Oc2ccc3nc(NC(=O)c4cc(C(F)(F)F)cc(C(F)(F)F)c4)sc3c2)ccn1	5

Tested on: A549
Test: Antiproliferative activity against human A549/ATCC cells assessed as cell growth at 10^-5 M after 48 hrs by sulforhodamine B assay
Type: functional
Details: A549, 48 h, read-out: Activity

SMILES	growth at 10 µM [%]
CNC(=O)c1cc(Oc2ccc3nc(NC(=O)c4cc(C(F)(F)F)cc(C(F)(F)F)c4)sc3c2)ccn1	13

Tested on: EKVX
Test: Antiproliferative activity against human EKVX cells assessed as cell growth at 10^-5 M after 48 hrs by sulforhodamine B assay
Type: functional
Details: read-out: Activity

SMILES	growth at 10 µM [%]
CNC(=O)c1cc(Oc2ccc3nc(NC(=O)c4cc(C(F)(F)F)cc(C(F)(F)F)c4)sc3c2)ccn1	15

Tested on: NCI-H226
Test: Antiproliferative activity against human NCI-H226 cells assessed as cell growth at 10^-5 M after 48 hrs by sulforhodamine B assay
Type: functional
Details: NCI-H226, 48 h, read-out: Activity

SMILES	growth at 10 µM [%]
CNC(=O)c1cc(Oc2ccc3nc(NC(=O)c4cc(C(F)(F)F)cc(C(F)(F)F)c4)sc3c2)ccn1	19

Tested on: NCI-H23
Test: Antiproliferative activity against human NCI-H23 cells assessed as cell growth at 10^-5 M after 48 hrs by sulforhodamine B assay
Type: functional
Details: NCI-H23, 48 h, read-out: Activity

SMILES	growth at 10 µM [%]
CNC(=O)c1cc(Oc2ccc3nc(NC(=O)c4cc(C(F)(F)F)cc(C(F)(F)F)c4)sc3c2)ccn1	15

Tested on: NCI-H460
Test: Antiproliferative activity against human NCI-H460 cells assessed as cell growth at 10^-5 M after 48 hrs by sulforhodamine B assay
Type: functional
Details: NCI-H460, 48 h, read-out: Activity

SMILES	growth at 10 µM [%]
CNC(=O)c1cc(Oc2ccc3nc(NC(=O)c4cc(C(F)(F)F)cc(C(F)(F)F)c4)sc3c2)ccn1	14

Tested on: not listed separately
Test: Antiproliferative activity against human SF295 cells assessed as cell growth at 10^-5 M after 48 hrs by sulforhodamine B assay
Type: functional
Details: SF-295, 48 h, read-out: Activity

SMILES	growth at 10 µM [%]
CNC(=O)c1cc(Oc2ccc3nc(NC(=O)c4cc(C(F)(F)F)cc(C(F)(F)F)c4)sc3c2)ccn1	1

Tested on: not listed separately
Test: Antiproliferative activity against human SNB75 cells assessed as cell growth at 10^-5 M after 48 hrs by sulforhodamine B assay
Type: functional
Details: SNB-75, 48 h, read-out: Activity

SMILES	growth at 10 µM [%]
CNC(=O)c1cc(Oc2ccc3nc(NC(=O)c4cc(C(F)(F)F)cc(C(F)(F)F)c4)sc3c2)ccn1	10

Tested on: U-251
Test: Antiproliferative activity against human U251 cells assessed as cell growth at 10^-5 M after 48 hrs by sulforhodamine B assay
Type: functional
Details: U-251, 48 h, read-out: Activity

SMILES	growth at 10 µM [%]
CNC(=O)c1cc(Oc2ccc3nc(NC(=O)c4cc(C(F)(F)F)cc(C(F)(F)F)c4)sc3c2)ccn1	12

Tested on: not listed separately
Test: Antiproliferative activity against human SKOV3 cells assessed as cell growth at 10^-7 M after 48 hrs by sulforhodamine B assay
Type: functional
Details: SK-OV-3, 48 h, read-out: Activity

SMILES	growth at 0.1 µM [%]
CNC(=O)c1cc(Oc2ccc3nc(NC(=O)c4cc(C(F)(F)F)cc(C(F)(F)F)c4)sc3c2)ccn1	91

Tested on: M14
Test: Antiproliferative activity against human M14 cells assessed as cell growth at 10^-5 M after 48 hrs by sulforhodamine B assay
Type: functional
Details: M14, 48 h, read-out: Activity

SMILES	growth at 10 µM [%]
CNC(=O)c1cc(Oc2ccc3nc(NC(=O)c4cc(C(F)(F)F)cc(C(F)(F)F)c4)sc3c2)ccn1	15

Tested on: SK-MEL-5
Test: Antiproliferative activity against human SK-MEL-5 cells assessed as cell growth at 10^-5 M after 48 hrs by sulforhodamine B assay
Type: functional
Details: SK-MEL-5, 48 h, read-out: Activity

SMILES	growth at 10 µM [%]
CNC(=O)c1cc(Oc2ccc3nc(NC(=O)c4cc(C(F)(F)F)cc(C(F)(F)F)c4)sc3c2)ccn1	-66
